Assay results reported in patent US20130005696A1, “BUFADIENOLIDE DERIVATIVES, PREPARING PROCESS THEREOF, COMPOSITION COMPRISING THE SAME AND THE USE THEREOF” (priority 2011, published 2013).

Experiments:
Type in all cases: in vivo, Balb/c nude mice
[1] = test system: human-derived colon carcinoma HCT-116 xenograft; test: Therapeutic effect against HCT-116 xenograft in nude mice; settings: QOD × 14 d
Description: (§1) This experiment is to investigate the in vivo inhibitory effect of II1E-01.HCl on growth of human-derived hepatic carcinoma HepG2 cell, human-derived breast carcinoma MDA-MB-231 cell, human-derived lung carcinoma H460 cell, human-derived colon carcinoma HCT-116 cell, human-derived […] MV-4-11 cell xenografts in nude mice.
(§2) Formulation of solvent control (5% anhydrous ethanol & 5% aqueous glucose solution): 2.5 mL anhydrous ethanol was added into a 50 mL tube, followed by addition of 47.5 mL 5% glucose solution for injection followed by shaking, and stored at room temperature before use.
(§3) Formulation of the preparations of the compounds to be tested: formulations with concentrations of 0.4 mg/mL and 0.6 mg/mL were prepared respectively. An appropriate amount of II1E-01.HCl was weighted and put into a 50 mL tube, followed by addition of corresponding volume of solvent to get the desired concentration and mixed using a vortex mixer. After the solid was dissolved completely, the solution was subpackaged into 4 mL vials and stored at refrigerated condition (2-8° C.) until use.
(§4) Experimental animals: Balb/c nude mice (male, six weeks old).
HCT116 cells were in vitro cultured to be proliferated. The cells in the log phase of growth were collected, resuspended in RPMI-1640 serum-free medium, and then implanted subcutaneously into the axilla of the right forelimb of nude mice. After 14 days, the tumor size reached about 470 mm^3. The mice bearing the tumor were grouped by randomized block method according to the tumor size into 3 groups, including the group of solvent control and groups of 4 mg/kg and 6 mg/kg dosages of the testing compound II1E-01.HCl. In the solvent control group, glucose injection was administered intravenously at tail once every other day (QOD). The testing compound II1E-01.HCl was administered intravenously (iv) at tail once every other day (QOD). The animals were given the drugs for 14 days, during which, the growth of tumor and the body weight of the mice were observed.
After continuously administering for 14 days (the 28th day after the implantation), the tumor weight and inhibition rate were calculated, and results are listed in Table 8.

[2] = test system: human-derived leukaemia MV-4-11 xenograft; test: Therapeutic effect against MV-4-11 xenograft in nude mice; settings: for Inhibition Rate (%): 4 mg/kg
Description: as §1, §2, §3, §4
MV-4-11 cells were in vitro cultured to be proliferated. The cells in the log phase of growth were collected and resuspended in IMDM serum-free medium, and then implanted subcutaneously into the axilla of the right forelimb of nude mice. After 37 days, the tumor size reached about 270 mm^3. The mice bearing the tumor were grouped by randomized block method according to the tumor size into 3 groups, which contain 6 mice in each group and include the group of solvent control, group of positive control (Sunitinib 40 mg/kg), and group of the testing compound II1E-01.HCl (4 mg/kg QOD). In the positive control group, sunitinib was administered intragastrically once daily (QD). In the group of II1E-01.HCl, II1E-01.HCl was administered intravenously at tail once every other day (QOD). The animals were given the drugs for 21 days, during which the growth of tumor and the body weight of the mice were observed.
After continuously administering for 21 days (the 58th day after the implantation), the tumor weight and inhibition rate were calculated, and results are listed in Table 9. […] In the group of the testing compound II1E-01.HCl (4 mg/kg QOD), the tumor also completely disappeared at 14th day after administration, and the inhibition rate was 100.00% (P<0.01) at the end of the experiment.

[3] = test system: human hepatic carcinoma HepG2 xenograft; test: Therapeutic effect against HepG2 xenograft in nude mice; settings: QOD × 14 d
Description: as §1, §2, §3, §4
HepG2 cells were in vitro cultured to be proliferated. The cells in the log phase of growth were collected and resuspended in DMEM serum-free medium, and then implanted subcutaneously into the axilla of the right forelimb of nude mice. After 11 days, the tumor size reached about 250 mm^3. The mice bearing the tumor were grouped according to the tumor size into 6 groups, including the group of solvent control, groups of positive controls (Rapamycin 10 mg/kg and Vinorelbine 8 mg/kg), and groups of low (2 mg/kg), middle (4 mg/kg) and high (6 mg/kg) dosages of the testing compound II1E-01.HCl. Each group was administered intravenously at tail. In the solvent control group, the solvent control solution was administered intravenously once every other day (QOD). In the low, middle and high dosage groups of II1E-01.HCl, II1E-01.HCl was administered intravenously once every other day (QOD). In the positive control groups, Rapamycin 10 mg/kg and Vinorelbine 8 mg/kg were administered once a week (QW). The animals were given the drugs for two weeks. In the two week time period, the growth of tumor and the body weight of the mice were observed.
Two weeks after administering (the 25th day after the implantation), the tumor weight and inhibition rate were calculated, and results are listed in Table 5.

[4] = test system: human-derived breast carcinoma MDA-MB-231 xenograft; test: Therapeutic effect against MDA-MB-231 xenograft in nude mice; settings: QOD × 7 d
Description: as §1, §2, §3, §4
19 days after MDA-MB-231 cells were implanted, the tumor size reached about 617 mm^3. The mice bearing the tumor were grouped and administered. The groups of II1E-01.HCl were administered once every other day (QOD), and the solvent control group was administered with the solvent control solution. After completion of the experiment, the tumor weight and the inhibition rate were calculated, and the results are summarized in Table 6. The high and middle dosage groups have significant inhibitory activities against the growth of MDA-MB-231 xenograft, and the effect depends on the amount obviously.
The tumor in this experiment had been allowed to grow to reach a relative bigger size before drug administration (the tumor size before drug administration was about 600 mm^3 while generally the tumor size was only 200-300 mm^3 before drug administration), which corresponds to a middle- or advanced-stage cancer.

[5] = 4 mg/kg iv, listed as II1E-01.HCl, 4 mg/kg
[6] = 6 mg/kg iv, listed as II1E-01.HCl, 6 mg/kg

C[C@]12CC[C@H](OC(=O)NC3CCNCC3)C[C@H]1CC[C@@H]1[C@@H]2CC[C@]2(C)[C@@H](c3ccc(=O)oc3)CC[C@]12O.Cl [II1E-01•HCl]
Tumor Weight(g) Mean ± SE ([1]; 4 mg/kg iv): 0.8017 ± 0.0480 g | Inhibition Rate (%) ([1]; 4 mg/kg iv, 4 mg/kg): 36.82% | Inhibition Rate (%) [1, 5]: 36.82% | Tumor Weight(g) Mean ± SE ([1]; 6 mg/kg iv): 0.4147 ± 0.0212 g | Inhibition Rate (%) ([1]; 6 mg/kg iv, 6 mg/kg): 67.33% | Inhibition Rate (%) [1, 6]: 67.33% | day after administration at which the tumor completely disappeared ([2]; 4 mg/kg iv QOD): 14 days | Tumor Weight(g) Mean ± SE ([2]; 4 mg/kg iv, QOD × 21 d): 0.0000 ± 0.0000 g | Inhibition Rate (%) ([2]; 4 mg/kg iv, QOD × 21 d): 100.00% | Inhibition Rate (%) ([2]; 4 mg/kg iv, QOD × 21 d, listed as II1E-01.HCl): 100.00% | Tumor Weight(g) Mean ± SE ([3]; 2 mg/kg iv): 0.3177 ± 0.0410 g | Inhibition Rate (%) ([3]; 2 mg/kg iv, 2 mg/kg): 58.50% | Inhibition Rate (%) ([3]; 2 mg/kg iv, listed as II1E-01.HCl, 2 mg/kg): 58.50% | Tumor Weight(g) Mean ± SE ([3]; 4 mg/kg iv): 0.0938 ± 0.0121 g | Inhibition Rate (%) ([3]; 4 mg/kg iv, 4 mg/kg): 87.75% | Inhibition Rate (%) [3, 5]: 87.75% | Tumor Weight(g) Mean ± SE ([3]; 6 mg/kg iv): 0.0262 ± 0.0054 g | Inhibition Rate (%) ([3]; 6 mg/kg iv, 6 mg/kg): 96.58% | Inhibition Rate (%) [3, 6]: 96.58% | Inhibition Rate (%) ([4]; 2 mg/kg iv): 16.36% | Tumor Weight(g) Mean ± SE ([4]; 2 mg/kg iv): 2.6063 ± 0.2731 g | Inhibition Rate (%) ([4]; 4 mg/kg iv): 33.99% | Tumor Weight(g) Mean ± SE ([4]; 4 mg/kg iv): 2.0569 ± 0.1340 g | Inhibition Rate (%) ([4]; 6 mg/kg iv): 52.23% | Tumor Weight(g) Mean ± SE ([4]; 6 mg/kg iv): 1.4887 ± 0.1763 g
